The values below come from publication PMC12627007, “HIV nucleocapsid proteins as targets for novel 1,2-benzisothiazol-3(2H)-one benzenesulfonamides: synthesis and antiretroviral activity” (Frontiers in Microbiology, 2025).

Read-outs that look alike come from different tables or passages of the source.

Series [1] can be described thus: Cytotoxicity in mock-infected MT-4 cells (MTT method). Type of series: cell-based. The settings on record: human. On the procedure:
The activity of the test compounds against the replication of HIV-1 wt and mutant strains (N119, A17, EFV^R, AZT^R, MDR, SAQ^R) and HIV-2 wt in acutely infected cells was based on the inhibition of virus-induced cytopathogenicity in MT-4 and C8166 cells, respectively. Briefly, 50 μL of culture medium containing 1 × 10^4 cells was added to each well of flat-bottom microtitre trays containing 50 μL of culture medium with or without different serial concentrations of test compounds. Then, 20 μL of an HIV suspension (containing the appropriate amount of CCID50 required to cause complete cytopathogenicity on day 4, final multiplicity of infection [m.o.i.] 0.01) was added. After incubation at 37 °C, cell viability was determined using the […] (MTT) method ([Pauwels et al., 1988]). The cytotoxicity of the test compounds was evaluated in parallel with their antiviral activity through the viability of mock-infected, treated cells, as monitored by the MTT method and described elsewhere ([Morellet et al., 1994]).

A short description of series [2]: microbe, parasite or virus in culture. In kind it is cell-based, HIV-1. As to conditions: all tested strains (HIV-1 wt, mutants, HIV-2). On the procedure: (§1) HIV-1IIIB and HIV-2 CBL-20 strains were obtained from the supernatants of persistently infected H9/IIIB and CEM cells, respectively. HIV-1 and HIV-2 stock solutions had titres of 4.5 × 10^7 and 1.4 × 10^6 50% cell culture infectious doses (CCID50)/ml, respectively. […] The K103R + V179D + P225H mutant (EFVR) was derived from an IIIB strain passaged in MT-4 cells in the presence of Efavirenz (up to 2 μM). N119, A17 and EFV^R stock solutions had titres of 1.2 × 10^8, 2.1 × 10^7, and 4.0 × 10^7 CCID50/ml, respectively.
(§2) The activity of the test compounds against the replication of HIV-1 wt and mutant strains (N119, A17, EFV^R, AZT^R, MDR, SAQ^R) and HIV-2 wt in acutely infected cells was based on the inhibition of virus-induced cytopathogenicity in MT-4 and C8166 cells, respectively. Briefly, 50 μL of culture medium containing 1 × 10^4 cells was added to each well of flat-bottom microtitre trays containing 50 μL of culture medium with or without different serial concentrations of test compounds. Then, 20 μL of an HIV suspension (containing the appropriate amount of CCID50 required to cause complete cytopathogenicity on day 4, final multiplicity of infection [m.o.i.] 0.01) was added.

The next series deals with HIV-1 IIIB strain. Description: microbe, parasite or virus in culture. In kind it is cell-based. As to conditions: for EC50: Human immunodeficiency virus 1, IIIB; for Selectivity Index (SI = CC50/EC50) HIV-1: IIIB strain, in round brackets. On the procedure:
as §1, §2

The subject of a further series is HIV-1 N119 (Y181C). Description: Inhibition of virus-induced cytopathogenicity in MT-4 cells, NNRTI-resistant mutant N119. In kind it is cell-based. As to conditions: for EC50: Human immunodeficiency virus 1, MT4, read-out: EC50 N119; for Selectivity Index (SI = CC50/EC50) N119: in round brackets. On the procedure:
as §1, §2
(In general: Cytopathic effects are the visible damage that an infection or toxin causes in cultured cells.)

Series [3] deals with HIV-1 A17 (K103N + Y181C). Description: Inhibition of virus-induced cytopathogenicity in MT-4 cells, NNRTI-resistant mutant A17. As to conditions: for EC50: Human immunodeficiency virus 1, MT4, read-out: EC50 A17; for Selectivity Index (SI = CC50/EC50) A17: in round brackets. Type of series: cell-based. As to the method:
as §1, §2

For series [4], the system named is HIV-1 EFVR (K103R + V179D + P225H). Description: Inhibition of virus-induced cytopathogenicity in MT-4 cells, NNRTI-resistant mutant EFVR. Type of series: cell-based. The settings on record: for EC50: Human immunodeficiency virus 1, MT4, read-out: EC50 EFVR; for Selectivity Index (SI = CC50/EC50) EFVR: in round brackets. As to the method:
as §1, §2

In series [5] the test system is HIV-1 AZTR (67N, 70R, 215F, 219Q). Nature of the series: Inhibition of virus-induced cytopathogenicity in MT-4 cells, NRTI-resistant mutant AZTR. Type of series: cell-based. The settings on record: for EC50: Human immunodeficiency virus 1, MT4, read-out: EC50 AZTR; for Selectivity Index (SI = CC50/EC50) AZTR: in round brackets. On the procedure: as §1, §2
The test system of series [6] is HIV-1 MDR (74V, 41L, 106A, 215Y). Description: Inhibition of virus-induced cytopathogenicity in MT-4 cells, NRTI-resistant mutant MDR. Type of series: cell-based. As to conditions: for EC50: Human immunodeficiency virus 1, MT4, read-out: EC50 MDR; for Selectivity Index (SI = CC50/EC50) MDR: in round brackets. As to the method: as §1, §2
In series [7] the test system is HIV-1 SAQR (L10F, G48V, L90M). Nature of the series: Inhibition of virus-induced cytopathogenicity in MT-4 cells, PRI-resistant mutant SAQR. In kind it is cell-based. The settings on record: for EC50: Human immunodeficiency virus 1, MT4, read-out: EC50 SAQR; for Selectivity Index (SI = CC50/EC50) SAQR: in round brackets. On the procedure:
as §1, §2

The subject of another series is HIV-2 CBL-20 strain. Description: Inhibition of HIV-2-induced cytopathogenicity in C8166 cells (MTT). In kind it is cell-based. On the procedure: as §1, §2
The test system of another series is cell-free HIV-1. Nature of the series: Virucidal activity against cell-free HIV-1 (Reed-Muench titration). Type of series: cell-based. As to conditions: 0 °C; compound 6 80 μM, AMPH-B 100 μM. On the procedure:
(§3) Cell-free, high-titre HIV-1 and HIV-2 stock solutions were exposed to the test compounds for 2 h at 0 °C or 37 °C. At the end of incubation, residual infectivity was determined using the Reed–Muench end-point titration method, as described below.
(§4) Titration was performed in C8166 cells using the standard limiting dilution method (dilution 1:2, four replica wells/dilution) in 96-well plates.

Another series has as its system cell-free HIV-2. Nature of the series: Virucidal activity against cell-free HIV-2 (Reed-Muench titration). In kind it is cell-based. The settings on record: 0 °C; compound 6 80 μM, AMPH-B 100 μM. On the procedure:
as §3, §4

What is called CC50 is the concentration giving 50% cytotoxicity. Broadly, the EC50 is the concentration giving half of the maximal effect.

Regarding `Cc1ccc2sn(NS(=O)(=O)c3ccccc3Cl)c(=O)c2c1` [Compound 17, 2-Chloro-N-(5-methyl-3-oxo-1,2-benzisothiazol-2(3H)-yl)benzenesulfonamide], in [1], the CC50 at 4 days came out at 73 ± 0.1 µM. Also, the “Selectivity Index (SI) against all tested strains” value in [2] was “around 10”. The EC50 in the series with HIV-1 IIIB strain (MT4, read-out: EC50 HIV-1) is 2 ± 1 µM; in the series on HIV-1 N119 (Y181C) it was 5 ± 0.7 µM; in series [3], 9 ± 3 µM; in [4], 5 ± 2 µM; in series [5], 4 ± 0.7 µM; in series [6], 3 ± 0.5 µM. Moreover, the EC50 in series [7] amounted to 6 ± 1 µM; with HIV-2 CBL-20 strain (Human immunodeficiency virus 2, C8166, read-out: EC50 HIV-2), 4 ± 0.5 µM. Further, in the series with HIV-1 IIIB strain, the “Selectivity Index (SI = CC50/EC50) HIV-1” value came out at 36. In the series with HIV-1 N119 (Y181C), the “Selectivity Index (SI = CC50/EC50) N119” value came to 14. In addition, in [3], the “Selectivity Index (SI = CC50/EC50) A17” value was determined as 8. The “Selectivity Index (SI = CC50/EC50) EFVR” value in series [4] came to 14. Besides, the “Selectivity Index (SI = CC50/EC50) AZTR” value in series [5] stood at 18. The “Selectivity Index (SI = CC50/EC50) MDR” value in [6] is 23. Also, the “Selectivity Index (SI = CC50/EC50) SAQR” value in series [7] was 12. In addition, the “Selectivity Index (SI = CC50/EC50) HIV-2” value in the series with HIV-2 CBL-20 strain (in round brackets) was 18.
`O=c1c2ccccc2sn1N(S(=O)(=O)c1ccc(F)cc1)S(=O)(=O)c1ccc(F)cc1` [Compound 23, 4-Fluoro-N-[(4-fluorolphenyl)sulfonyl]-N-(3-oxo-1,2-benzisothiazol-2(3H)-yl)benzenesulfonamide]: the CC50 at 4 days in series [1] is 36 ± 2.5 µM. The EC50 with HIV-1 IIIB strain (MT4, read-out: EC50 HIV-1) stood at 26 ± 2 µM; with HIV-1 N119 (Y181C), 23 ± 1 µM; in series [3] it was 24 µM; in series [4], 25 µM; in series [5], 22 µM; in series [6] it was 25 µM. Also, in series [7], the EC50 amounted to 22 µM.
`O=c1c2ccccc2sn1NS(=O)(=O)c1cc(Cl)cc(Cl)c1` [Compound 16, 3,5-Dichloro-N-(3-oxo-1,2-benzisothiazol-2(3H)-yl)benzenesulfonamide] returned a CC50 at 4 days in series [1] of 86 ± 1 µM. Moreover, the EC50 with HIV-1 IIIB strain (MT4, read-out: EC50 HIV-1) was 16 ± 5 µM; in the series on HIV-1 N119 (Y181C), 7 ± 0.4 µM; in series [3], 11 ± 2 µM; in series [4], 10 ± 3 µM; in series [5], 8 ± 0.7 µM; in series [6] it was 13 ± 2 µM. Moreover, the EC50 in [7] was determined as 12 ± 2 µM. In addition, in the series with HIV-1 IIIB strain, the “Selectivity Index (SI = CC50/EC50) HIV-1” value amounted to 5. For the same compound, the “Selectivity Index (SI = CC50/EC50) N119” value with HIV-1 N119 (Y181C) amounted to 12. The “Selectivity Index (SI = CC50/EC50) A17” value in [3] was 7. In addition, in series [4], the “Selectivity Index (SI = CC50/EC50) EFVR” value is given as 8. In addition, in series [5], the “Selectivity Index (SI = CC50/EC50) AZTR” value is 10. In addition, the “Selectivity Index (SI = CC50/EC50) MDR” value in [6] is given as 6. The “Selectivity Index (SI = CC50/EC50) SAQR” value in [7] amounted to 7.
Consider `C[C@@H]1[C@H](O)[C@@H](C)/C=C/C=C/C=C/C=C/C=C/C=C/C=C/[C@H](O[C@@H]2O[C@H](C)[C@@H](O)[C@H](N)[C@@H]2O)C[C@@H]2O[C@](O)(C[C@@H](O)C[C@@H](O)[C@H](O)CC[C@@H](O)C[C@@H](O)CC(=O)O[C@H]1C)C[C@H](O)[C@H]2C(=O)O` [AMPH-B, Amphotericin B, reference compound], for which the EC50 in the series on HIV-1 IIIB strain (MT4, read-out: EC50 HIV-1 (Table 2)) amounted to 6 ± 3 µM; in the series on HIV-2 CBL-20 strain (Human immunodeficiency virus 2, C8166, read-out: EC50 HIV-2 (Table 2)), 2 ± 0.3 µM. Moreover, in the series on cell-free HIV-1, the “Effect on HIV-1 infectivity, incubation at 0 °C” value is “still able to reduce it by a high percentage”. In the series on cell-free HIV-2, the “Effect on HIV-2 infectivity, incubation at 0 °C” value is reported as “more than 1 log10”.
